Results taken from ChEMBL document CHEMBL5055626 (J Med Chem, 2021).
Calls of active or inactive are those of the source. No cut-off for these calls is given here. Where a SMILES comes first, the peptide text is derived from it. Bridges are numbered along the chain shown (N, C = ends).

How the values were obtained:
[1] = target: Neuronal acetylcholine receptor; alpha4/beta2 (Rattus norvegicus, UniProt P09483+P12390); experiment: Antagonist activity at rat alpha4beta2 nAChR expressed in xenopus oocytes assessed as inhibition of Ach- induced response at -70 mV holding potential preincubated for 5 mins followed by Ach stimulation by voltage-clamp based electrophysiological method; assay type: cell-based, Oocyte
[2] = Antagonist activity at human nAChR alpha7 R186K mutant expressed in xenopus oocytes assessed as inhibition of Ach- induced response at -70 mV holding potential preincubated for 5 mins followed by Ach stimulation by voltage-clamp based electrophysiological method; assay type: cell-based; conditions: Oocyte
[3] = Antagonist activity at rat nAChR alpha7 M69V mutant expressed in xenopus oocytes assessed as inhibition of Ach- induced response at -70 mV holding potential preincubated for 5 mins followed by Ach stimulation by voltage-clamp based electrophysiological method; assay type: cell-based; conditions: Oocyte
[4] = Antagonist activity at rat alpha6/ alpha3beta2beta3 nAChR expressed in xenopus oocytes assessed as inhibition of Ach- induced response at -70 mV holding potential preincubated for 5 mins followed by Ach stimulation by voltage-clamp based electrophysiological method; assay type: cell-based; conditions: Oocyte
[5] = target: Neuronal acetylcholine receptor subunit alpha-7 (Homo sapiens, UniProt P36544); assay type: cell-based, Oocyte
[6] = target: Nicotinic acetylcholine receptor alpha6/alpha3/beta4 (Homo sapiens, UniProt P30926+P32297+Q15825); experiment: Antagonist activity at rat alpha6/alpha3beta4 nAChR expressed in xenopus oocytes assessed as inhibition of Ach- induced response at -70 mV holding potential preincubated for 5 mins followed by Ach stimulation by voltage-clamp based electrophysiological method; assay type: cell-based, Oocyte
[7] = Antagonist activity at rat nAChR alpha7 Q141H mutant expressed in xenopus oocytes assessed as inhibition of Ach- induced response at -70 mV holding potential preincubated for 5 mins followed by Ach stimulation by voltage-clamp based electrophysiological method; assay type: cell-based; conditions: Oocyte
[8] = target: Neuronal acetylcholine receptor; alpha4/beta2 (Rattus norvegicus) (UniProt P09483+P12390); experiment: Antagonist activity at rat alpha4beta2 nAChR expressed in xenopus oocytes assessed as inhibition of Ach- induced response at 10 uM at -70 mV holding potential preincubated for 5 mins followed by Ach stimulation by voltage-clamp based electrophysiological method; assay type: cell-based; conditions: Oocyte

Neuronal acetylcholine receptor; alpha4/beta2, sequence (P09483 whole entry): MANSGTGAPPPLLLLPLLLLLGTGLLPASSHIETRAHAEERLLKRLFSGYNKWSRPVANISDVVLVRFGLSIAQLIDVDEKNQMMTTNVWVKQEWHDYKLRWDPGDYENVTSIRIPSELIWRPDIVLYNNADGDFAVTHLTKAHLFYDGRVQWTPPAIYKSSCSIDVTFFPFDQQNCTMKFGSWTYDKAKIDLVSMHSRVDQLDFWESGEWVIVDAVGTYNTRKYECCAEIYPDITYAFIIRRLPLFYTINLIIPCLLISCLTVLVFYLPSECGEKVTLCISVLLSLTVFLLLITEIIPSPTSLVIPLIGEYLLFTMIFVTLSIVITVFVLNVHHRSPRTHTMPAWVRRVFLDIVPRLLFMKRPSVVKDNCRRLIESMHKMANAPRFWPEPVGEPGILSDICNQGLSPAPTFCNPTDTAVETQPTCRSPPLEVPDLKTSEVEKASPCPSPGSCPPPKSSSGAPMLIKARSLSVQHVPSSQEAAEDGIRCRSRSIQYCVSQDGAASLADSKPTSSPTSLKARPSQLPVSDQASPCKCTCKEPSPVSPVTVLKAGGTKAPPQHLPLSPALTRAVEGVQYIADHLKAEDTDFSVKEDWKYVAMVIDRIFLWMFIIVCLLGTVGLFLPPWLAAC
Neuronal acetylcholine receptor; alpha4/beta2, sequence (P12390 whole entry): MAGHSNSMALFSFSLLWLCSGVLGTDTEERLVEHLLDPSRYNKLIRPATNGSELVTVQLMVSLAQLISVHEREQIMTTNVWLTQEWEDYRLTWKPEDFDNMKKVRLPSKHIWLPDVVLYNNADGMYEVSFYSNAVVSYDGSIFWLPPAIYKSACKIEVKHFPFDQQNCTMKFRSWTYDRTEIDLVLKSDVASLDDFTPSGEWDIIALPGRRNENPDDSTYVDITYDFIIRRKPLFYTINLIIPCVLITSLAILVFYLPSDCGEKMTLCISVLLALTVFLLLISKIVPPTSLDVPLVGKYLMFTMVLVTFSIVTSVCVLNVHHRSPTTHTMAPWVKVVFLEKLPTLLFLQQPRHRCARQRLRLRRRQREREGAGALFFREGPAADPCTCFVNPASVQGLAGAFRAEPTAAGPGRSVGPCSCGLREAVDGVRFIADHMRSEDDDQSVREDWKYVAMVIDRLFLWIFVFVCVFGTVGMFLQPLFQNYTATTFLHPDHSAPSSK
Nicotinic acetylcholine receptor alpha6/alpha3/beta4, sequence (P30926 whole entry): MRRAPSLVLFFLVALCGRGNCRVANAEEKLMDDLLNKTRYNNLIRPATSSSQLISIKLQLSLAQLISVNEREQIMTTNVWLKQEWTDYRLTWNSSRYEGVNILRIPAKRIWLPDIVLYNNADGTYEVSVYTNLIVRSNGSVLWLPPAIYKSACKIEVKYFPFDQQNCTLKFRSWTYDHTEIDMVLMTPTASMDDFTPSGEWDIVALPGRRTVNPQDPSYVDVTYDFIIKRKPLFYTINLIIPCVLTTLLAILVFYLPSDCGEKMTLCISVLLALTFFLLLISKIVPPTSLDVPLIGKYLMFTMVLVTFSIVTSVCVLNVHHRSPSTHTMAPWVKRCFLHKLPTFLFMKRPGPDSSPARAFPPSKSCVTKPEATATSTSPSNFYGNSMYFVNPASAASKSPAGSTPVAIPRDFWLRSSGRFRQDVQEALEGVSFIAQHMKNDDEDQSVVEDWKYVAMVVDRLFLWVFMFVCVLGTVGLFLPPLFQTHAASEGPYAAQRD
Nicotinic acetylcholine receptor alpha6/alpha3/beta4, sequence (P32297 whole entry): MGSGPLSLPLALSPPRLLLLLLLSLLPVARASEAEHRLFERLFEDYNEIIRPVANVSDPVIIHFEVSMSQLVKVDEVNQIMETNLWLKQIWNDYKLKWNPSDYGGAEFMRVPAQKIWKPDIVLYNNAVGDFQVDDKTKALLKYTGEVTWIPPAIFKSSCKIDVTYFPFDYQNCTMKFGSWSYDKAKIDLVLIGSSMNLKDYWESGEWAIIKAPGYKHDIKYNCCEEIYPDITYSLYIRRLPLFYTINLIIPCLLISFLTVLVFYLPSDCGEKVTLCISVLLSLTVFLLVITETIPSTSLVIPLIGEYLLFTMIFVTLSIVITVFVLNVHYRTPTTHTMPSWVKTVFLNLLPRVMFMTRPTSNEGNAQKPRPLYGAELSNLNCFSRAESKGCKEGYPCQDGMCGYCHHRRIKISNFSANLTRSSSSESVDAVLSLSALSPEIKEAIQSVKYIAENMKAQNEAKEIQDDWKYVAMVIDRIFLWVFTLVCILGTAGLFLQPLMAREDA
Nicotinic acetylcholine receptor alpha6/alpha3/beta4, sequence (Q15825 whole entry): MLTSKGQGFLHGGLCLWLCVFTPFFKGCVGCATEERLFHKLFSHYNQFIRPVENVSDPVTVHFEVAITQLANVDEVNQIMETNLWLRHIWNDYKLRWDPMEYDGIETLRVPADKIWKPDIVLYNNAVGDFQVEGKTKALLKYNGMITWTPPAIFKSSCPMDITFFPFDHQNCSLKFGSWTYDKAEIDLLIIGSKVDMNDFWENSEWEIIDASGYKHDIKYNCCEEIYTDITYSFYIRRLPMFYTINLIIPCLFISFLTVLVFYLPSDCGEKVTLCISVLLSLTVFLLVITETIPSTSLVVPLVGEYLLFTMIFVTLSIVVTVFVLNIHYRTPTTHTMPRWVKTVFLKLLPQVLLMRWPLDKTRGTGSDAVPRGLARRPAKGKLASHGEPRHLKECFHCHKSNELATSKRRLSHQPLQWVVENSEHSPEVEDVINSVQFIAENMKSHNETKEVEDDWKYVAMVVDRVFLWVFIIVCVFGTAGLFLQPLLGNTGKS
Neuronal acetylcholine receptor subunit alpha-7, sequence (P36544 whole entry): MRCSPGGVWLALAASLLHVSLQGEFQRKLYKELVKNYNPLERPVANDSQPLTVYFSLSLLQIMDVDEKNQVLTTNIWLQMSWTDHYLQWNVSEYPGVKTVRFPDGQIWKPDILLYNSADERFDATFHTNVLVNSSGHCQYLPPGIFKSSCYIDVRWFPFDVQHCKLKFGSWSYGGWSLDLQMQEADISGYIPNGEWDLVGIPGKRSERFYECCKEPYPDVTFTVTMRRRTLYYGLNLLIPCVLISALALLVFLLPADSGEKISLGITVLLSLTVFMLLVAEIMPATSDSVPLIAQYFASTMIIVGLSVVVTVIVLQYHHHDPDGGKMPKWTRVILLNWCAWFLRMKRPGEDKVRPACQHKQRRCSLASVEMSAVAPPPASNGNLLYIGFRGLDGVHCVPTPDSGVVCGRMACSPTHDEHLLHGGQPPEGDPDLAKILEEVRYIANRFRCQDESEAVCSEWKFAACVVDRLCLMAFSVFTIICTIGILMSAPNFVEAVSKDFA

**Q.** With `C[C@@H]1NC(=O)[C@@H]2CSSC[C@H](NC(=O)CN)C(=O)N[C@@H](CSSC[C@@H](C(N)=O)NC(=O)[C@H](Cc3cnc[nH]3)NC(=O)[C@H](CCC(=O)O)NC(=O)[C@H](Cc3cnc[nH]3)NC1=O)C(=O)N[C@@H](CO)C(=O)N[C@@H](CC(N)=O)C(=O)N1CCC[C@H]1C(=O)N1CCC[C@H]1C(=O)N2` (H-GCCSNPPCAHEHC-NH2; disulfide 2-8, 3-13) as the compound, how does the IC50 [1] read?
**A.** Its IC50 is > 10 µM.

**Q.** What about the IC50 [2] of the same compound?
**A.** Its IC50 is 1.13 µM.

**Q.** And the IC50 [3]?
**A.** The IC50 was 0.13 µM.

**Q.** What about the IC50 [4] of the same compound?
**A.** Its IC50 is 0.15 µM.

**Q.** What about the IC50 [5] of the same compound?
**A.** The IC50 was 1.57 µM.

**Q.** And the IC50 [6]?
**A.** Its IC50 is 1.41 µM.

**Q.** What about the IC50 [7] of the same compound?
**A.** The IC50 was 0.3 µM.

**Q.** And the inhibition [8]?
**A.** Its inhibition is “inactive”.
